Data published in US20110212958A1, “FATTY ACID RALOXIFENE DERIVATIVES AND THEIR USES” (CATABASIS PHARMACEUTICALS, INC., priority 2010, published 2011).

Tested on: NF-κB
Assay: NF-κB luciferase reporter assay in LPS-stimulated RAW 264.7 macrophages
Format: cell-based
Details: Mus musculus, RAW264.7; RAW 264.7 cells with 3× NFkB response element luciferase reporter; 2 hour pretreatment, 200 ng/ml LPS for 3 hours; 6 dose point titrations in triplicate
Experimental: RAW 264.7 cells stably expressing a 3× NFkB response elemement-drive luciferase reporter were seeded into 96 well plates in sera-free medium (Optimem) 18 hours prior to compound application. Compounds of the invention were prepared by first making 100 mM stock solutions in EtOH. Stock solutions were then diluted 1:100 in low LPS FBS (Gemini BenchMark 100-106), mixed vigorously and allowed to incubate at room temperature for 30 minutes. 1:2 serial dilutions were then made in FBS supplemented with 1% EtOH, mixed vigorously, and again allowed to incubate at room temperature for 30 minutes before adding to RAW 264.7 reporter cells (final concentrations: 10% FBS, 100 uM highest compound dilution, 0.1% EtOH) for a 2 hour pretreatment prior to stimulation with LPS. Cells were then stimulated with 200 ng/ml LPS or vehicle control for 3 hours in the presence of the compounds of the invention. A set of six vehicles was left unstimulated with LPS in order to measure the assay floor. […] After the 3 h incubation period with LPS, cell viability was measured by reading fluorescence (excitation 550 nm, emission 595 nm) with a Perkin Elmer Victor V plate reader. […] Luciferase activity was measured with the Perkin Elmer Victor V plate reader. NF-κB activity was expressed as a percent of the vehicle control wells (stimulated with LPS). […]

**Q.** `CC/C=C\C/C=C\C/C=C\C/C=C\C/C=C\C/C=C\CCC(=O)NCCNC(=O)Oc1ccc2c(C(=O)c3ccc(OCCN4CCOCC4)cc3)c(-c3ccc(O)cc3)sc2c1` [III-4, 2-(4-hydroxyphenyl)-3-(4-(2-morpholinoethoxy)benzoyl)benzo[b]thiophen-6-yl 2-(4Z,7Z,10Z,13Z,16Z,19Z)-docosa-4,7,10,13,16,19-hexaenamidoethylcarbamate] was tested. Which IC50 did it give?
**A.** ~50 µM
